Results: publication PMC10562782 (iScience, 2023)

What was measured:
Assay type in all cases: binding
human UGGT1 = human UGGT1 (Homo sapiens, UniProt Q9NYU2); experiment: STD NMR
[1] = molecular target: T1, CtUGGTGT24 (UDP-glucose glycoprotein glucosyltransferase, catalytic domain) (Thermochaetoides thermophila, UniProt G0SB58); experiment: […] Å co-crystal structure
T1 sequence (G0SB58 1187-1473): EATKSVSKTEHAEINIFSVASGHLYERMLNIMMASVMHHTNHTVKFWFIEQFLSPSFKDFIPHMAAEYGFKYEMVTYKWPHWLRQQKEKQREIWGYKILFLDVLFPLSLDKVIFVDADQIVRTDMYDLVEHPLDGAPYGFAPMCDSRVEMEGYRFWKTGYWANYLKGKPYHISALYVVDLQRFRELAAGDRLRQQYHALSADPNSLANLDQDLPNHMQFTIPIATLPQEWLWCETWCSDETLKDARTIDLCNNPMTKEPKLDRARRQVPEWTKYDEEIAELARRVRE

[2] = molecular target: T1, CtUGGTGT24 (UDP-glucose glycoprotein glucosyltransferase, catalytic domain); experiment: co-crystal structure

human UGGT1, sequence (Q9NYU2 43-1551): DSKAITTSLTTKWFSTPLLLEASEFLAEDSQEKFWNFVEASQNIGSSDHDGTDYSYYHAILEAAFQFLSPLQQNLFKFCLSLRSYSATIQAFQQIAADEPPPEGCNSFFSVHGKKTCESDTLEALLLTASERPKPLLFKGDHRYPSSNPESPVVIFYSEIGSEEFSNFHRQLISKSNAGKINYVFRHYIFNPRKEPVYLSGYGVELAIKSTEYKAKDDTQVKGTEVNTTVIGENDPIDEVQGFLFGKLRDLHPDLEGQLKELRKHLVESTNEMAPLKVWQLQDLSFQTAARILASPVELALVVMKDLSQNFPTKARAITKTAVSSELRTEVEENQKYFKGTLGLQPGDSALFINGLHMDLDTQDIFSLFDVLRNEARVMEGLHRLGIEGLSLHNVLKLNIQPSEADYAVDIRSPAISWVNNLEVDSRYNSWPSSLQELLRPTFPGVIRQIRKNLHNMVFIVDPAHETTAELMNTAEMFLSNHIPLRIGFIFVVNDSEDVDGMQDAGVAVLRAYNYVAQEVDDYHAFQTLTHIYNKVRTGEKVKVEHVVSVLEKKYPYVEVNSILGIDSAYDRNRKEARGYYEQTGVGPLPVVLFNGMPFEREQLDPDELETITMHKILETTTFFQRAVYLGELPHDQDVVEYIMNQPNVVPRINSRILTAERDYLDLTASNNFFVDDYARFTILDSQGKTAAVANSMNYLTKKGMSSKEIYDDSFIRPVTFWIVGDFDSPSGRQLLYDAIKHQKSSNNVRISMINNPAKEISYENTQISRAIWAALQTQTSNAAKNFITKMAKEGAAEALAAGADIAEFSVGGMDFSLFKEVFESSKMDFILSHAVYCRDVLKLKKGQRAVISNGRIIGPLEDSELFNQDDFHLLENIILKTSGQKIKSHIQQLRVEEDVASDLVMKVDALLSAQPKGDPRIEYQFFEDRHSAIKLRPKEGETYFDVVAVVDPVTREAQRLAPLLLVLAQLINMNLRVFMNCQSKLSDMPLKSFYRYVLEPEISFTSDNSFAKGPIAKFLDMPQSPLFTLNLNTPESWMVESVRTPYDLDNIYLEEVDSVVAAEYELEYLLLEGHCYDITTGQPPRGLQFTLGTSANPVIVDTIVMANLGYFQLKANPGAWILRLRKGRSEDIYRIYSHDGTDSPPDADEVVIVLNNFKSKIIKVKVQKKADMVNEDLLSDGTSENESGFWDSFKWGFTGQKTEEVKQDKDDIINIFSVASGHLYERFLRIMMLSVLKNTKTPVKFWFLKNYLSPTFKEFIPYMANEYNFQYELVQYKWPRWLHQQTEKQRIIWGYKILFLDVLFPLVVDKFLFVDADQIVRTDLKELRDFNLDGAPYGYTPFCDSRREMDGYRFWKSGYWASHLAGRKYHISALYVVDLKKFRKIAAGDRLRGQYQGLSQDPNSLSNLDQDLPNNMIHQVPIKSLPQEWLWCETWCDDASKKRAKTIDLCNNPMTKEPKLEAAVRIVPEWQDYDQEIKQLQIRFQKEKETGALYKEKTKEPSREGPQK

Row | SMILES | Kd (human UGGT1) | Kd [1] | co-crystal structure (X-ray) [2]
1 | Oc1ccc(CN2CCOCC2)c2cccnc12 [5M-8OH-Q, 5-[(morpholin-4-yl)methyl]quinolin-8-ol] | 613 µM | 47 ± 0.7 µM | 
2 | O=c1ccn([C@@H]2O[C@H](COP(=O)(O)OP(=O)(O)O[C@H]3O[C@H](CO)[C@@H](O)[C@H](O)[C@H]3F)[C@@H](O)[C@H]2O)c(=O)[nH]1 [U2F] |  |  | In the ^U2FCtUGGTGT24 structure (PDB ID 7ZLU) these two water molecules are replaced by an O atom
